Consider two compounds from patent publication US10966426B2, “Herbicidal compositions comprising phenylpyrimidines” (BASF SE, priority 2016, dated 2021).

Assay type in all cases: in vivo
Test [1] has as its system Brachiaria decumbens. Kind of test: greenhouse post-emergence treatment, BRADC. The following applies: Urochloa decumbens, 480 h, 20 DAT, BRADC. In short, it runs like this:
(§1)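 Post-emergence greenhouse spray on 3–15 cm plants, sown direct or transplanted a few days before treatment. Scored visually on a 0–100 scale after 2 to 4 weeks; expected additive effect computed by Colby: E=X+Y−(X·Y/100).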

Test [2] relates to Apera spica-venti. Kind of test: greenhouse pre-emergence treatment, APESV. To be noted: 20 DAT. In short, it runs like this:
(§2)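 Seeds were sown per species in pots of loamy sand with about 3.0% humus, sprayed with the aqueous spray liquor directly after sowing, watered and hooded until rooted, then kept at 10-25° C. or 20-35° C. for 2 to 4 weeks. Damage was scored 0 (none) to 100 (no emergence/complete destruction).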

In test [3] the test system is Apera spica-venti. As to the kind of experiment: greenhouse post-emergence treatment, APESV. To be noted: APESV, 20 DAT. In short, it runs like this: as §1
Another test concerns Galium aparine. As to the kind of experiment: greenhouse post-emergence treatment, GALAP. The following applies: Galium aparine, 480 h, GALAP, 20 DAT. In short, it runs like this: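 Each species was grown separately and treated once it reached 3 to 15 cm, using actives suspended or emulsified in water. Plants were kept at 10-25° C. or 20-35° C., depending on species. Damage is a 0–100 rating taken during 2 to 4 weeks.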

In another test the test system is Lolium multiflorum. As to the kind of experiment: greenhouse post-emergence treatment, LOLMU. To be noted: Lolium multiflorum, 480 h, LOLMU, chlorotoluron solo 500 gai/ha, 20 DAT. In short, it runs like this:
(§3)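 Visual damage score 0–100 (0 = normal growth; 100 = no emergence/above-ground parts destroyed), read 2–4 wk post-treatment. Loamy sand, ~3.0% humus; seedlings grown in place or transplanted days before spraying; water as solvent; 10-25° C. or 20-35° C. per species. Combination expectations by Colby: E=X+Y−(X·Y/100).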

In another test the test system is Echinocloa crus-galli. Kind of test: greenhouse pre-emergence treatment, ECHCG. To be noted: 20 DAT. An excerpt: (§4) The culture containers used were plastic pots containing loamy sand with approximately 3.0% of humus as substrate. The seeds of the test plants were sown separately for each species.
(§5) For the pre-emergence treatment, the active compounds, suspended or emulsified in water, were applied directly after sowing by means of finely distributing nozzles. The containers were irrigated gently to promote germination and growth and subsequently covered with transparent plastic hoods until the plants had rooted. This cover caused uniform germination of the test plants unless this was adversely affected by the active compounds.
(§6) Depending on the species, the plants were kept at 10-25° C. and 20-35° C., respectively.
(§7) The test period extended over 2 to 4 weeks. During this time, the plants were tended and their response to the individual treatments was evaluated.
(§8) Evaluation was carried out using a scale from 0 to 100. 100 means no emergence of the plants, or complete destruction of at least the above-ground parts, and 0 means no damage or normal course of growth. A good herbicidal activity is given at values of at least 70, and very good herbicidal activity is given at values of at least 85.
(§9) The respective stated components A and B, and if appropriate, C were formulated as a 10% by weight strength emulsion concentrate and, with addition of the amount of solvent system, introduced into the spray liquor used for applying the active compound. In the examples, the solvent used was water.
(§10) In the examples below, using the method of S. R. Colby (1967) “Calculating synergistic and antagonistic responses of herbicide combinations”, Weeds 15, p. 22ff., the value E, which is expected if the activity of the individual active compounds is only additive, was calculated. E=X+Y−(X·Y/100) where X=effect in percent using herbicide A at an application rate a; • Y=effect in percent using herbicide B at application rate b; • E=expected effect (in %) of herbicide A+herbicide B at application rates a+b.

The next test relates to Papaver rhoeas. As to the kind of experiment: greenhouse pre-emergence treatment, PAPRH. The following applies: 20 DAT.
Excerpt: as §4, §5, §6, §7, §8, §9, §10

The next test deals with Avena fatua. Kind of test: greenhouse post-emergence treatment, AVEFA. The following applies: Avena fatua, 480 h, AVEFA, 20 DAT. In short, it runs like this:
as §3

A further test relates to Alopecurus myosuroides. Kind of test: greenhouse pre-emergence treatment, ALOMY. The following applies: 20 DAT. In short, it runs like this:
as §2

Test [4] has as its system Brachiaria decumbens. Kind of test: greenhouse pre-emergence treatment, BRADC. To be noted: Urochloa decumbens, 480 h, BRADC, chlorotoluron solo 500 gai/ha, 20 DAT. In short, it runs like this: as §2

With `CC(C)N1C(=O)c2ccccc2NS1(=O)=O` [bentazon], the inhibition at 30 g/ha in the test on Brachiaria decumbens [1] (30 gai/ha (SL 480 g/l), Table X3, read-out: % activity, solo application) worked out at 0%. Besides, the inhibition at 60 g/ha in the test on Brachiaria decumbens [1] (60 gai/ha (SL 480 g/l), Table X3, read-out: % activity, solo application) turned out to be 0%. Besides, the inhibition at 120 g/ha in the test on Brachiaria decumbens [1] (120 gai/ha (SL 480 g/l), Table X3, read-out: % activity, solo application) is 0%. Further, the pest or weed control at 30 g/ha in the test with Brachiaria decumbens [1] (bentazon solo 30 gai/ha) is 0%. For the same compound, in the test with Brachiaria decumbens [1] (bentazon solo 60 gai/ha), the pest or weed control at 60 g/ha was 0%. Further, the pest or weed control at 240 g/ha in the test with Brachiaria decumbens [1] (bentazon solo 240 gai/ha) was 20%.
As for `Cc1ccc(NC(=O)N(C)C)cc1Cl` [chlorotoluron], the “% activity” value is on record as 55% in the test on Apera spica-venti [2] (chlorotoluron solo 62.5 gai/ha); 65% in the test with Apera spica-venti [2] (chlorotoluron solo 250 gai/ha); 65% with Apera spica-venti [2] (chlorotoluron solo 500 gai/ha); 25% in the test with Apera spica-venti [3] (chlorotoluron solo 62.5 gai/ha); 55% with Apera spica-venti [3] (chlorotoluron solo 125 gai/ha); 0% with Echinocloa crus-galli (chlorotoluron solo 62.5 gai/ha). In addition, the “% activity” value is recorded as 0% with Echinocloa crus-galli (chlorotoluron solo 125 gai/ha); 35% with Echinocloa crus-galli (chlorotoluron solo 250 gai/ha); 25% with Echinocloa crus-galli (chlorotoluron solo 500 gai/ha); 0% in the test on Papaver rhoeas (chlorotoluron solo 62.5 gai/ha); 90% in the test with Papaver rhoeas (chlorotoluron solo 500 gai/ha); 0% in the test on Alopecurus myosuroides (chlorotoluron solo 62.5 gai/ha). For the same compound, the “% activity” value in the test on Alopecurus myosuroides (chlorotoluron solo 125 gai/ha) and with Alopecurus myosuroides (chlorotoluron solo 250 gai/ha) was 0% each time. Besides, the pest or weed control at 250 g/ha is 65% in the test with Galium aparine (chlorotoluron solo 250 gai/ha) and 40% in the test on Avena fatua (chlorotoluron solo 250 gai/ha). For the same compound, the pest or weed control at 500 g/ha in the test on Galium aparine (chlorotoluron solo 500 gai/ha) worked out at 70%; with Lolium multiflorum, 80%; with Avena fatua (chlorotoluron solo 500 gai/ha), 70%; in the test with Brachiaria decumbens [4], 0%. The pest or weed control at 125 g/ha in the test with Avena fatua (chlorotoluron solo 125 gai/ha, read-out: % activity) is 0%.
